The record followed here is the OPERA property sets (Mansouri et al. 2018).

In the case of `CCNC(=O)c1cccs1`, the logP (usually the decadic logarithm of the partition coefficient of the neutral form, usually between octanol and water) amounted to 1.18. The result for `CCCOC(=O)c1cccs1` reads 3.01; that for `Clc1ccsc1`, 2.55. The result for `CCCOC(=O)c1ccsc1` reads 3.03; that for `CCNC(=O)c1ccsc1`, 1.18; that for `CCCNC(=O)c1cccs1`, 1.68. The result for `CNC(=O)c1cccs1` reads 0.84. With `CCCNC(=O)c1ccsc1`, the logP was 1.65.

Take `COc1cccs1`: the logP is 2.13. The result for `CCOC(=O)c1ccsc1` reads 2.32; that for `CNC(=O)c1ccsc1`, 0.81. On to `COC(=O)c1cccs1`, for which the logP was found to be 1.83.
